Measurements as given in patent US9376429B2, “Sodium channel blockers, preparation method thereof and use thereof” (Daewoong Pharmaceutical Co., Ltd., priority 2012, dated 2016).

biological target: T1, sodium ion channel (Nav1.7) (Homo sapiens, UniProt Q15858); experiment: Blocking effect against sodium ion channel (Nav1.7), IonFlux16 auto patch clamp, hNav1.7 HEK293 cells; assay type: cell-based; conditions: peak current after 50 seconds treatment, eight concentrations
T1 construct: host or cells: HEK293
T1 sequence (Q15858 whole entry): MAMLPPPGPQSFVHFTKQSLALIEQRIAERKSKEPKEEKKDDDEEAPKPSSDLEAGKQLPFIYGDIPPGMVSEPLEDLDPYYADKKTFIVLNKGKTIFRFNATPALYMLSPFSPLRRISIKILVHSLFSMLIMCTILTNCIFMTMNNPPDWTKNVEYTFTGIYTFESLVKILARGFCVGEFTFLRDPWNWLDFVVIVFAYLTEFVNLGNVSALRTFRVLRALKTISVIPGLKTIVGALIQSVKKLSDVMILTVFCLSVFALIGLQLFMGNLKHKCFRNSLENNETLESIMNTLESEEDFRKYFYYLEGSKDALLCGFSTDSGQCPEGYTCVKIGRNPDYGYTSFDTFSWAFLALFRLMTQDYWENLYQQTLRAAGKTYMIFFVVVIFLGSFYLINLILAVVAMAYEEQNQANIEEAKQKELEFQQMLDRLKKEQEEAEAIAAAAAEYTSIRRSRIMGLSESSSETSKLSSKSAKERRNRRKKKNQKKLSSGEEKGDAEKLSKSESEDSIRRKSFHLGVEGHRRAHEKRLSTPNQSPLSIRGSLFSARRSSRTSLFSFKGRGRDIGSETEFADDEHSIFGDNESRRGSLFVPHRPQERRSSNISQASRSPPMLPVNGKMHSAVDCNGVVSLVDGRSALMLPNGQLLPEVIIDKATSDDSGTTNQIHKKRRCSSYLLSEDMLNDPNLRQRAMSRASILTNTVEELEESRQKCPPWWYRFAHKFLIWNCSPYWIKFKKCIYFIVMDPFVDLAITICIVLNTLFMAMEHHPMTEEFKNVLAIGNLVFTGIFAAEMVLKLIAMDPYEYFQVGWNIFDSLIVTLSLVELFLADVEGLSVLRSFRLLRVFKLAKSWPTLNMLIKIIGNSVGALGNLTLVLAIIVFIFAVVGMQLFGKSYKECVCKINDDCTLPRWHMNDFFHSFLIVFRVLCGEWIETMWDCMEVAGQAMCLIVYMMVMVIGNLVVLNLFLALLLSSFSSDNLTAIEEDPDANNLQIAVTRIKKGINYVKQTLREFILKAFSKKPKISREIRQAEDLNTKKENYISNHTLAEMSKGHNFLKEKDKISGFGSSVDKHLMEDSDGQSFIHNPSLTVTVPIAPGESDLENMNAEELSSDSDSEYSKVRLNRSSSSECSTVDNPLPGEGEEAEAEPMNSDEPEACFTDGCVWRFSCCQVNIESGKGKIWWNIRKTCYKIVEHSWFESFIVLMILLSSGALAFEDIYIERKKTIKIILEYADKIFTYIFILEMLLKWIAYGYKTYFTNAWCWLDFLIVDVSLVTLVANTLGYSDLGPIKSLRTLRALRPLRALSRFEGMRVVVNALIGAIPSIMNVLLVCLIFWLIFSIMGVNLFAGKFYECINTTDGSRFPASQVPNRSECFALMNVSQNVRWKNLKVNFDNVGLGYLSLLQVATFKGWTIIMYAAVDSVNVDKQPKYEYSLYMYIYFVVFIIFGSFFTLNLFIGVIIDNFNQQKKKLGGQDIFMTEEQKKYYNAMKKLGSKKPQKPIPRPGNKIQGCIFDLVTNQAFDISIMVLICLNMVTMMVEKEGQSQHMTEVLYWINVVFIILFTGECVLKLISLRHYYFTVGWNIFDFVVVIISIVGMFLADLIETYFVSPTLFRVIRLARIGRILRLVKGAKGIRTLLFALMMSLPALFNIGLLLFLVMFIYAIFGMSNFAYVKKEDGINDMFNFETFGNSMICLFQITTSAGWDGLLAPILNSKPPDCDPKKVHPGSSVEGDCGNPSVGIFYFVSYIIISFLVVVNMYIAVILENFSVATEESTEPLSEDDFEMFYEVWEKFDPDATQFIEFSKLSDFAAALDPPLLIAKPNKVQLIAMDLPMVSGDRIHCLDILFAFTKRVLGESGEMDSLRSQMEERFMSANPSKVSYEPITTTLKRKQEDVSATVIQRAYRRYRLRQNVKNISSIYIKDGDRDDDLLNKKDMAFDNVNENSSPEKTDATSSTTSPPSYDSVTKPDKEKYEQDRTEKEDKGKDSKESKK
Method: In order to measure the activities of the inventive compounds as antagonists, an experiment on a blocking effect against the sodium ion channel (Nav1.7) was carried out as follows.
The hNav1.7 HEK293 cell line used was a cell line having a human sodium ion channel 1.7 gene (type IX voltage-gated sodium channel alpha subunit) in human embryonic kidney (HEK) 293 cells and was purchased from Millipore. The medium used was prepared by adding 1% 100×NEAA and 10% heat inactivated FBS to DMEM F-12 and adding 1% P/S as an antibiotic thereto. G-418 as a […] was added during subculture, and the hNav1.7 HEK293 cells were cultured to a confluence of about 80% in a T75 flask in a 5% CO2 incubator at 37° C. for 2 or 3 days and detached from the flask by treatment with 0.25% trypsin solution. Then, the cells were collected by centrifugation and used in the experiment.
The compounds prepared in the Examples of the present invention were dissolved in dimethyl sulfoxide (DMSO) and used in the experiment. 90 mM and 10 mM DMSO stock solutions were prepared from each of the compounds and diluted in an extracellular solution (4 mM KCl, 138 mM NaCl, 1 mM MgCl2, 1.8 mM CaCl2, 5.6 mM glucose, 10 mM HEPES, pH 7.45) at various concentrations so that the final concentration of each compound in DMSO was 0.3% or less.
To measure the sodium ion channel blocking effect, an IonFlux16 Auto patch clamp system (Fluxion, Inc.) and a plate for exclusive use were used. The cells were distributed in an extracellular solution (4 mM KCl, 138 mM NaCl, 1 mM MgCl2, 1.8 mM CaCl2, 5.6 mM glucose, 10 mM HEPES, pH 7.45), and then dispensed in the specified region of the plate, and each of the prepared compound samples was diluted at various concentrations, and then dispensed in the specified region of the plate.
Specifically, eight concentrations per compound were set, and percent inhibition was determined by calculating the percentage of inhibition of the peak current, generated after treating the cells with each concentration of the compound for 50 seconds, relative to the peak current generated before treatment with the compound, and the IC50 value was calculated using the Sigma plot program. In Table 2 below, the percent inhibition of Nav1.7 is rated as follows: […]

IC50 | Compound
> 100 nM | Cc1noc(C)c1-c1cc(-c2ccccc2)ncc1Oc1ccc(S(=O)(=O)Nc2nccs2)cc1C#N [Example 37, 3-cyano-4-((4-(3,5-dimethylisoxazol-4-yl)-6-phenylpyridin-3-yl)oxy)-N-(thiazol-2-yl)benzenesulfonamide]
> 100 nM | Cn1cc(-c2cc(-c3cnn(C)c3)c(Oc3ccc(S(=O)(=O)Nc4ncns4)cc3C#N)cn2)cn1 [Example 55, 4-((4,6-bis(1-methyl-1H-pyrazol-4-yl)pyridin-3-yl)oxy)-3-cyano-N-(1,2,4-thiadiazol-5-yl)benzenesulfonamide]
> 100 nM | Cn1cc(-c2nc(-c3ccc(F)nc3)ccc2Oc2ccc(S(=O)(=O)Nc3nccs3)cc2C#N)cn1 [Example 124, 3-cyano-4-((6′-fluoro-6-(1-methyl-1H-pyrazol-4-yl)-[2,3′-bipyridin]-5-yl)oxy)-N-(thiazol-2-yl)benzenesulfonamide]
< 50 nM | N#Cc1cc(S(=O)(=O)Nc2ncns2)ccc1Oc1cnc(-c2ccccc2)cc1-c1ccoc1 [Example 3, 3-cyano-4-(4-(furan-3-yl)-6-phenylpyridin-3-yloxy)-N-(1,2,4-thiadiazol-5-yl)benzenesulfonamide]
51 to 100 nM | Cn1cc(-c2nc(-c3cccc(F)c3)ccc2Oc2ccc(S(=O)(=O)Nc3nccs3)cc2C#N)cn1 [Example 122, 3-cyano-4-((6-(3-fluorophenyl)-2-(1-methyl-1H-pyrazol-4-yl)pyridin-3-yl)oxy)-N-(thiazol-2-yl)benzenesulfonamide]
> 100 nM | Cn1nccc1-c1cc(Cl)ccc1C(O)c1ccc(S(=O)(=O)Nc2nccs2)cc1F (stereo not shown) [Example 144, 4-((4-chloro-2-(1-methyl-1H-pyrazol-5-yl)phenyl)(hydroxy)methyl)-3-fluoro-N-(thiazol-2-yl)benzenesulfonamide]
> 100 nM | N#Cc1cc(S(=O)(=O)Nc2nccs2)ccc1Oc1cnc(-c2ccccc2)cc1-c1ccncc1Cl [Example 35, 4-((3′-chloro-6-phenyl-[4,4′-bipyridin]-3-yl)oxy)-3-cyano-N-(thiazol-2-yl)benzenesulfonamide]
> 100 nM | N#Cc1cc(S(=O)(=O)Nc2cscn2)ccc1Oc1cnc(-c2cccc(F)c2)cc1-c1cccnc1 [Example 84, 3-cyano-4-((6′-(3-fluorophenyl)-[3,4′-bipyridin]-3′-yl)oxy)-N-(thiazol-4-yl)benzenesulfonamide]
< 50 nM | N#Cc1cc(S(=O)(=O)Nc2nccs2)ccc1Oc1cnc(-c2ccc(F)nc2F)cc1-c1ccoc1 [Example 12, 3-cyano-4-(2′,6′-difluoro-4-(furan-3-yl)-2,3′-bipyridin-5-yloxy)-N-(thiazol-2-yl)benzenesulfonamide]
> 100 nM | N#Cc1cc(S(=O)(=O)Nc2nccs2)ccc1Oc1cnc(-c2ccccc2)cc1-c1csc(C2CC2)n1 [Example 43, 3-cyano-4-((4-(2-cyclopropylthiazol-4-yl)-6-phenylpyridin-3-yl)oxy)-N-(thiazol-2-yl)benzenesulfonamide]
> 100 nM | O=S(=O)(Nc1nccs1)c1ccc(C(O)c2ccc(-c3ccccc3F)cc2-c2ccoc2)cc1 (stereo not shown) [Example 152, 4-((2′-fluoro-3-(furan-3-yl)-[1,1′-biphenyl]-4-yl)(hydroxy)methyl)-N-(thiazol-2-yl)benzenesulfonamide]
> 100 nM | O=S(=O)(Nc1cscn1)c1cc(Cl)c(Oc2cnc(-c3cccc(F)c3)cc2-c2cncc(N3CCCC3)c2)cc1F [Example 99, 5-chloro-2-fluoro-4-((6′-(3-fluorophenyl)-5-(pyrrolidin-1-yl)-[3,4′-bipyridin]-3′-yl)oxy)-N-(thiazol-4-yl)benzenesulfonamide]
> 100 nM | Cn1nccc1-c1nc(-c2cnoc2)ccc1Oc1ccc(S(=O)(=O)Nc2nccs2)cc1C#N [Example 121, 3-cyano-4-((6-(isoxazol-4-yl)-2-(1-methyl-1H-pyrazol-5-yl)pyridin-3-yl)oxy)-N-(thiazol-2-yl)benzenesulfonamide]
